From patent US8962844B2, “1,3,4-oxadiazole and 1,3,4-thiadiazole β-lactamase inhibitors” (priority 2012, dated 2015)
Structures can show the parent of a compound that is named as a salt.

Columns and labels:
[1] = tested on: bacterial strains that express KPC β-lactamases; assay: Standard BLI potentiation MIC / synergy MIC (sMIC) assays run in the presence of a β-lactam, KPC expressing strains; format: cell-based; settings: more active for at least one KPC strain and/or better spectrum of activity than Avibactam; BLI in combination with a β-lactam
Text: (§1) Unless otherwise indicated, the activity of the BLI compounds can be described by the MIC value obtained from a Synergy MIC assay or a BLI potentiation assay (e.g as described herein), both of which are run in the presence of a β-lactam.
(§2) A set of β-lactamase expressing isogenic E. coli strains was constructed by cloning a β-lactamase gene into a customized derivative of pBR322 (GenBank Accession Number J01749) and transforming the engineered plasmids into E. coli. The NdeI restriction site within the plasmid backbone of pBR322 was removed to generate pBR322 ΔNdeI. The pBR322 ΔNdeI vector itself, minus the blaTEM-1 gene, was amplified using two primers: (1) pBR-Pbla 5′-cgcatatgactettectttttcaatattattg-3, SEQ ID 1, a primer with an engineered NdeI restriction site at the 3′ end of the blaTEM-1 promoter and (2) pBR-vec-1 5′-[…]-3′, SEQ ID 2, a primer with an engineered BamHI restriction site at the 3′ end of the blaTEM-1 open reading frame. The chloramphenicol resistance gene, cat, was generated by PCR amplification from pKD3 (GenBank Accession Number AY048742) using primers with an engineered NdeI restriction site at the 5′ end (Pbla-cat 5′-[…]-3′, SEQ ID 3) and an engineered BamHI restriction site at the 3′ end (Vec-1-cat 5′-[…]-3′, SEQ ID 4) of the resistance gene. The two PCR products, pBR322 ΔNdeI and cat were ligated together generating pBR-CBST (pBR322 ΔNdeI ΔTEM-1::cat Seq. ID 5) which retains both the pBR322 tetracycline resistance cassette, tetA, and the plasmid origin of replication but the blaTEM-1 gene was replaced by the cat gene.
(§3) Using this engineering strategy a number of plasmids producing β-lactamase genes from different classes (see below) were generated using synthetic genes with an engineered NdeI restriction site at the 5′ end and BamHI restriction site at the 3′ end of each gene (GenScript). Both the synthetic β-lactamase genes and cat gene were ligated into the NdeI/BamHI sites of the pBR322 ΔNdeI PCR product and transformed into electrocompetent E. coli ElectroMax DH10B (Invitrogen/Life Technologies). E. coli DH10B harboring the recombinant plasmids were selected on LB agar (supplemented with 25 μg/mL tetracycline) and single isolated colonies were then inoculated into 5 mL LB media (supplemented with 25 μg/mL tetracycline), and incubated at 37° C. with aeration (250 rpm) for 18 hrs. The cultures were frozen back at −80° C. in 20% glycerol. The DNA sequence of the cloned β-lactamase genes was confirmed. The β-lactamase gene expression in the recombinant E. coli strains was driven by the blaTEM-1 promoter in the pBR-CBST plasmid and was characterized by MIC profiling of the E. coli recombinant strains against comparator β-lactam/BLI combinations in broth microdilution assay.
(§4) The experimental protocol was performed according to Clinical and Laboratory Standards Institute (CLSI) guidelines with modifications as described below (CLSI guidelines can be derived from the CLSI document M07-A9 published in January 2012: “Methods for Dilution Antimicrobial Susceptibility Tests for Bacteria That Grow Aerobically; Approved Standard-Ninth Edition”).
(§5) To prepare for MIC testing, frozen glycerol stocks of clinical isolates (Klebsiella pneumoniae, Eschericia coli, Enterobacter spp, Citrobacter spp, or Pseudomonas aeruginosa) were used to streak for isolated colonies on rich, non-selective, tryptic soy agar containing 5% sheep's blood (TSAB). Frozen glycerol stocks of laboratory engineered, isogenic E. coli strains, which contain cloned β-lactamase expressing plasmids were used to streak for isolated colonies on rich, selective LB agar supplemented with 25 μg/mL tetracycline to maintain the plasmid. All strains were incubated at 37° C. for 18-24 hrs.
(§6) On the day of testing, primary cultures were started by scraping off 5-10 colonies from the TSAB plates containing clinical strains or the tetracycline supplemented LB plates containing engineered strains. […]

[2] = tested on: bacterial strains that express the class D cephalosporinase OXA-15; assay: Standard BLI potentiation MIC / synergy MIC (sMIC) assays run in the presence of a β-lactam, OXA-15 expressing strains; format: cell-based, E. coli; settings: BLI in combination with a β-lactam; comparison with Avibactam (comparator compound CCC)
Text: as §1, §2, §3, §4, §5, §6

O=C1N2C[C@@H](CC[C@H]2c2nnc(CCC3CNC3)o2)N1OS(=O)(=O)O [Compound 742, (2S,5R)-2-(5-(2-(azetidin-3-yl)ethyl)-1,3,4-oxadiazol-2-yl)-7-oxo-1,6-diazabicyclo[3.2.1]octan-6-yl hydrogen sulfate]
activity and/or spectrum of activity against bacterial strains that express KPC β-lactamases, compared with Avibactam [1]: more active than Avibactam | activity against bacterial strains that express the class D cephalosporinase OXA-15, compared with Avibactam [2]: more active than Avibactam

N=C(N)NC1CC(Cc2nnc([C@@H]3CC[C@@H]4CN3C(=O)N4OS(=O)(=O)O)o2)C1 (stereo partly drawn) [Compound 752, (2S,5R)-2-(5-((3-guanidinocyclobutyl)methyl)-1,3,4-oxadiazol-2-yl)-7-oxo-1,6-diazabicyclo[3.2.1]octan-6-yl hydrogen sulfate]
activity and/or spectrum of activity against bacterial strains that express KPC β-lactamases, compared with Avibactam [1]: more active than Avibactam | activity against bacterial strains that express the class D cephalosporinase OXA-15, compared with Avibactam [2]: more active than Avibactam

NCCCCc1nnc([C@@H]2CC[C@@H]3CN2C(=O)N3OS(=O)(=O)O)o1 [Compound 735, (2S,5R)-2-(5-(4-aminobutyl)-1,3,4-oxadiazol-2-yl)-7-oxo-1,6-diazabicyclo[3.2.1]octan-6-yl hydrogen sulfate]
activity and/or spectrum of activity against bacterial strains that express KPC β-lactamases, compared with Avibactam [1]: more active than Avibactam | activity against bacterial strains that express the class D cephalosporinase OXA-15, compared with Avibactam [2]: more active than Avibactam

O=C1N2C[C@@H](CC[C@H]2c2nnc(CN3CCNCC3)o2)N1OS(=O)(=O)O [Compound 777, (2S,5R)-7-oxo-2-(5-(piperazin-1-ylmethyl)-1,3,4-oxadiazol-2-yl)-1,6-diazabicyclo[3.2.1]octan-6-yl hydrogen sulfate]
activity and/or spectrum of activity against bacterial strains that express KPC β-lactamases, compared with Avibactam [1]: more active than Avibactam | activity against bacterial strains that express the class D cephalosporinase OXA-15, compared with Avibactam [2]: more active than Avibactam

O=C1N2C[C@@H](CC[C@H]2c2nnc([C@H]3CCNC3)o2)N1OS(=O)(=O)O [Compound 758, (2S,5R)-7-oxo-2-(5-((S)-pyrrolidin-3-yl)-1,3,4-oxadiazol-2-yl)-1,6-diazabicyclo[3.2.1]octan-6-yl hydrogen sulfate]
activity and/or spectrum of activity against bacterial strains that express KPC β-lactamases, compared with Avibactam [1]: more active than Avibactam | activity against bacterial strains that express the class D cephalosporinase OXA-15, compared with Avibactam [2]: more active than Avibactam

N[C@@H]1CC[C@H](c2nnc([C@@H]3CC[C@@H]4CN3C(=O)N4OS(=O)(=O)O)o2)C1 [Compound 729, (2S,5R)-2-(5-((1S,3R)-3-aminocyclopentyl)-1,3,4-oxadiazol-2-yl)-7-oxo-1,6-diazabicyclo[3.2.1]octan-6-yl hydrogen sulfate]
activity and/or spectrum of activity against bacterial strains that express KPC β-lactamases, compared with Avibactam [1]: more active than Avibactam | activity against bacterial strains that express the class D cephalosporinase OXA-15, compared with Avibactam [2]: more active than Avibactam

NC(=O)c1nnc([C@@H]2CC[C@@H]3CN2C(=O)N3OS(=O)(=O)O)o1 [Compound 706, (2S,5R)-2-(5-carbamoyl-1,3,4-oxadiazol-2-yl)-7-oxo-1,6-diaza-bicyclo[3.2.1]octan-6-yl hydrogen sulfate]
activity and/or spectrum of activity against bacterial strains that express KPC β-lactamases, compared with Avibactam [1]: more active than Avibactam | activity against bacterial strains that express the class D cephalosporinase OXA-15, compared with Avibactam [2]: more active than Avibactam

N=C(N)N1CC(c2nnc([C@@H]3CC[C@@H]4CN3C(=O)N4OS(=O)(=O)O)o2)C1 [Compound 709, (2S,5R)-2-(5-(1-carbamimidoylazetidin-3-yl)-1,3,4-oxadiazol-2-yl)-7-oxo-1,6-diazabicyclo[3.2.1]octan-6-yl hydrogen sulfate]
activity and/or spectrum of activity against bacterial strains that express KPC β-lactamases, compared with Avibactam [1]: more active than Avibactam | activity against bacterial strains that express the class D cephalosporinase OXA-15, compared with Avibactam [2]: more active than Avibactam

N=C(N)NC1(Cc2nnc([C@@H]3CC[C@@H]4CN3C(=O)N4OS(=O)(=O)O)o2)CC1 [Compound 739, (2S,5R)-2-(5-((1-guanidinocyclopropyl)methyl)-1,3,4-oxadiazol-2-yl)-7-oxo-1,6-diazabicyclo[3.2.1]octan-6-yl hydrogen sulfate]
activity and/or spectrum of activity against bacterial strains that express KPC β-lactamases, compared with Avibactam [1]: more active than Avibactam | activity against bacterial strains that express the class D cephalosporinase OXA-15, compared with Avibactam [2]: more active than Avibactam

O=C1N2C[C@@H](CC[C@H]2c2nnc(C3CC4(CNC4)C3)o2)N1OS(=O)(=O)O [Compound 750, (2S,5R)-2-(5-(2-azaspiro[3,3]heptan-6-yl)-1,3,4-oxadiazol-2-yl)-7-oxo-1,6-diazabicyclo[3.2.1]octan-6-yl hydrogen sulfate]
activity and/or spectrum of activity against bacterial strains that express KPC β-lactamases, compared with Avibactam [1]: more active than Avibactam | activity against bacterial strains that express the class D cephalosporinase OXA-15, compared with Avibactam [2]: more active than Avibactam

O=C1N2C[C@@H](CC[C@H]2c2nnc(CCCC3CNC3)o2)N1OS(=O)(=O)O [Compound 743, (2S,5R)-2-(5-(3-(azetidin-3-yl)propyl)-1,3,4-oxadiazol-2-yl)-7-oxo-1,6-diazabicyclo[3.2.1]octan-6-yl hydrogen sulfate]
activity and/or spectrum of activity against bacterial strains that express KPC β-lactamases, compared with Avibactam [1]: more active than Avibactam | activity against bacterial strains that express the class D cephalosporinase OXA-15, compared with Avibactam [2]: more active than Avibactam

O=C1N2C[C@@H](CC[C@H]2c2nnc(CNC3CNC3)o2)N1OS(=O)(=O)O [Compound 726, (2S,5R)-2-(5-((azetidin-3-ylamino)methyl)-1,3,4-oxadiazol-2-yl)-7-oxo-1,6-diazabicyclo[3.2.1]octan-6-yl hydrogen sulfate]
activity and/or spectrum of activity against bacterial strains that express KPC β-lactamases, compared with Avibactam [1]: more active than Avibactam | activity against bacterial strains that express the class D cephalosporinase OXA-15, compared with Avibactam [2]: more active than Avibactam

O=C1N2C[C@@H](CC[C@H]2c2nnc(CCNC3CCNCC3)o2)N1OS(=O)(=O)O [Compound 770, (2S,5R)-7-oxo-2-(5-(2-(piperidin-4-ylamino)ethyl)-1,3,4-oxadiazol-2-yl)-1,6-diazabicyclo[3.2.1]octan-6-yl hydrogen sulfate]
activity and/or spectrum of activity against bacterial strains that express KPC β-lactamases, compared with Avibactam [1]: more active than Avibactam | activity against bacterial strains that express the class D cephalosporinase OXA-15, compared with Avibactam [2]: more active than Avibactam

N=C(N)N1CC(Cc2nnc([C@@H]3CC[C@@H]4CN3C(=O)N4OS(=O)(=O)O)o2)C1 [Compound 741, (2S,5R)-2-(5-((1-carbamimidoylazetidin-3-yl)methyl)-1,3,4-oxadiazol-2-yl)-7-oxo-1,6-diazabicyclo[3.2.1]octan-6-yl hydrogen sulfate]
activity and/or spectrum of activity against bacterial strains that express KPC β-lactamases, compared with Avibactam [1]: more active than Avibactam | activity against bacterial strains that express the class D cephalosporinase OXA-15, compared with Avibactam [2]: more active than Avibactam

N[C@H]1C[C@H](c2nnc([C@@H]3CC[C@@H]4CN3C(=O)N4OS(=O)(=O)O)s2)C1 [Compound 783, (2S,5R)-2-(5-((1r,3S)-3-aminocyclobutyl)-1,3,4-thiadiazol-2-yl)-7-oxo-1,6-diazabicyclo[3.2.1]octan-6-yl hydrogen sulfate]
activity and/or spectrum of activity against bacterial strains that express KPC β-lactamases, compared with Avibactam [1]: more active than Avibactam | activity against bacterial strains that express the class D cephalosporinase OXA-15, compared with Avibactam [2]: more active than Avibactam

N[C@@H]1CN[C@@H](c2nnc([C@@H]3CC[C@@H]4CN3C(=O)N4OS(=O)(=O)O)o2)C1 [Compound 763, (2S,5R)-2-(5-((2R,4S)-4-aminopyrrolidin-2-yl)-1,3,4-oxadiazol-2-yl)-7-oxo-1,6-diazabicyclo[3.2.1]octan-6-yl hydrogen sulfate]
activity and/or spectrum of activity against bacterial strains that express KPC β-lactamases, compared with Avibactam [1]: more active than Avibactam | activity against bacterial strains that express the class D cephalosporinase OXA-15, compared with Avibactam [2]: more active than Avibactam
